Measurements reported in patent publication US11344534B2, “Cholinergic agonism for the treatment of pancreatic cancer” (priority 2017, dated 2022).
Entries after “also recorded” stand apart in the source; their conditions may differ.

Legend:
Panc02 liver metastases = experiment: Panc02 liver metastatic model (splenic injection, hemi-splenectomy); type: in vivo, mouse
Text: A metastatic mouse model of pancreatic cancer has been developed. The procedure reported by Lei Zheng has been modified and involves resecting half the spleen followed by injection 2×10^6 Panc02 (or other PDAC cell lines) into the spleen (4, 5). (FIG. 3A, B). Mice are then sacrificed 30-60 days later. […] In combination with this metastatic model of pancreatic cancer, a surgical approach to achieve selective cholinergic denervation of the liver has been developed. This involves identifying and isolating the hepatic branch of the vagal nerve, followed by resection of the hepatic branch (FIG. 3E, F).
In additional preliminary studies, the effects of bethanechol on the progression of liver metastases and in survival were examined. […] There were 5-8 mice in each group.
Then, it was examined whether the direct parasympathetic signal influences the metastatic lesions. The liver is a major site of metastatic spread for pancreatic cancer as well as many other solid tumors, and many patients with advanced PDAC eventually die with liver metastases. In order to investigate the role of parasympathetic signaling on the growth of liver metastasis, a well established syngeneic model of metastatic pancreatic cancer (Soares et al. 2014) was utilized. […] Moreover, to confirm that the parasympathetic pathway directly regulated tumor cells at the liver metastatic site, expression of Ki67, CD44 and pEGFR was analyzed.
Liver metastatic model procedure was performed previously described. (Soares K C et al. 2014) Briefly, a left subcostal incision was performed along the line with the left ear and the spleen was exposed through the incision. The spleen was divided into upper and lower spleen by placing two Horizon medium size ligating clips in the center of the spleen. 150 μl of phosphate buffered saline was drawn up into a 27 G×⅝″ syringe and 100 μl of Panc02 (2×10^6) cells was also drawn up into the same syringe and the cells were injected slowly into the exposed lower-hemispleen. Lower hemisplenectomy was performed by ligating pancreas spleen vessel and cutting above.
However, given that many PDAC patients with metastatic disease (Stage IV) eventually die with liver metastases, the effect of parasympathetic signaling on the growth of hepatic lesions was examined utilizing a well-established syngeneic model of metastatic PDAC^32. […] Moreover, to confirm that the parasympathetic pathway directly regulated tumor cells at the liver metastatic site, expression of Ki67 (FIGS. 12H-K), p-EGFR (FIGS. 12L-O) and CD44 (FIGS. 12P-S) were analyzed immunohistochemically. […]

murine K8282 cells = experiment: Western blot of EGFR/MAPK and PI3K/AKT signaling, K8282; type: cell-based, mouse
Experimental: To analyze EGFR and the MAPK and PI3K-Akt pathway in human and murine pancreatic cancer cell lines, cells were grown in 12-well plate to around ˜70% confluent, changed the 0.5% FBS medium, added the drugs respectively and incubated them for further 72 hrs incubation in a typical CO2 incubator (˜20% O2). After removing the medium, cells were washed twice with PBS, and protein extraction was performed on ice using RIPA buffer with protease inhibitor (Complete) (Roche) cocktail and phosphatase inhibitor (phosSTOP) (Roche). Protein samples were subsequently separated in 10% Bis-Tris Gel NuPAGE® electrophoresis using MES SDS Running Buffer (Invitrogen, CA, USA). After transfer to nitrocellulose, membranes were blocked with 5% BSA, and samples were probed with the following primary antibodies: p-EGFR (Cell Signaling), EGFR (Cell Signaling), p-BRAF (Cell Signaling), BRAF (Cell Signaling), p-ERK1/2 (phosphorylated p44/42 MAPK) (Thr202/Tyr204) (Cell Signaling), ERK1/2 (p44/42 MAPK) (Thr202/Tyr204) (Cell Signaling), p-PI3K (Cell Signaling), PI3K (Cell Signaling), p-Akt (Cell Signaling), Akt (Cell Signaling), and β-actin (Cell Signaling) followed by horseradish peroxidase-coupled secondary antibody. Immunoreactive bands were visualized using 5-bromo-4-chloro-3-indolyl phosphate/nitro blue tetrazolium and bands were quantified with ImageJ.
To analyze EGFR, MAPK and PI3K-AKT pathways in human and murine pancreatic cancer cell lines, cells were grown in 12-well culture plates to ˜70% confluency. The medium was then changed to 0.5% FBS medium, the respective drugs were added, and they were incubated for an additional 72 hours in a CO2 incubator (˜5% CO2). After removing the medium, cells were washed twice with PBS, and protein extraction was performed on ice using RIPA buffer with protease inhibitor (Complete, Roche) cocktail and a phosphatase inhibitor (phosSTOP, Roche). Protein samples were subsequently separated by 10% Bis-Tris Gel NuPAGE® electrophoresis using MES SDS Running Buffer (Invitrogen, CA, USA). After transfer to nitrocellulose, membranes were blocked with 5% BSA, and samples were probed with the following primary antibodies: p-EGFR (Cell Signaling), EGFR (Cell Signaling), p-BRAF (Cell Signaling), BRAF (Cell Signaling), p-ERK1/2 (phosphorylated p44/42 MAPK) (Thr202/Tyr204) (Cell Signaling), ERK1/2 (p44/42 MAPK) (Thr202/Tyr204) (Cell Signaling), p-PI3K (Cell Signaling), PI3K (Cell Signaling), p-AKT (Cell Signaling), AKT (Cell Signaling), and β-actin (Cell Signaling) followed by horseradish peroxidase-coupled secondary antibody. Immunoreactive bands were visualized using 5-bromo-4-chloro-3-indolyl phosphate/nitro blue tetrazolium and bands were quantified with ImageJ.

[1] = tested on: Kras^+/LSL-G12D mutant spheres; experiment: 3D Matrigel sphere culture of Kras mutant (Ad-Cre) pancreatic acinar cells; type: cell-based, mouse
Experimental: Cholinergic stimulation could in theory promote cancer indirectly through effects on stromal cells, or directly through effects on pancreatic epithelial cells. To determine whether cholinergic stimulation promoted tumor development in part through muscarinic receptors on cancer cells, the sphere forming capacity of K-Ras^+/LSL-G12D mutant pancreatic acinar cells was assessed in a 3D Matrigel culture system, with or without muscarinic stimulation. K-Ras^+/LSL-G12D mutant spheres were generated from K-Ras^+/LSL-G12D pancreatic acinar cells by treatment with adenoviral delivered Cre (Ad-Cre).
3D cultures were performed as described previously (Wescott et al., 2009). Organoids were cultured for 5 days before analysis. Adenoviral delivered Cre (Ad-Cre) was added to the cultures and medium was changed after 12 hours. […] Sphere size and […] were analyzed using ImageJ software.
To determine whether cholinergic stimulation suppresses tumor development in part through specific muscarinic receptors on cancer cells, the sphere forming capacity of Kras^+/LSL-G12D pancreatic acinar cells in a 3D Matrigel culture system in the absence and presence of muscarinic agonists and antagonists was assessed. Kras^+/LSL-G12D mutant spheres were generated from Kras^+/LSL-G12D mice by delivery of an adenoviral Cre (Ad-Cre).
3D cultures were performed as described previously^18. Organoids were cultured for 5 days before analysis. Adenoviral delivered Cre (Ad-Cre) was added to the cultures and medium was changed after 12 hours. […] Sphere size and number were analyzed using ImageJ software.

[2] = Panc02 liver metastatic model, at necropsy
[3] = Panc02 liver metastatic model, bethanechol vs untreated control
[4] = day 5, pilocarpine 1 mM, scopolamine 10 μM, McN-34A 50 μM, pirenzepine 50 μM, vs controls

SMILES	(maximum) tumor volume (Panc02 liver metastases; [2])	number of tumors (Panc02 liver metastases; [2])	survival (Panc02 liver metastases; Panc02 liver metastatic model, bethanechol in drinking water, controls 29 days) [days]	survival (in words) (Panc02 liver metastases; [3])	tumor growth (Panc02 liver metastases; [3])	immunohistochemical markers: Ki67, C44, F4/80, nerves (peripherin or neurofilament), phospho-EGFR and phosphor-PI3K (Panc02 liver metastases; after bethanechol treatment)	expression of Ki67, p-EGFR and CD44 in liver metastases (Panc02 liver metastases; bethanechol group vs untreated control)	reduction in Ki-67 staining of Panc02 liver mets (Panc02 liver metastases; mice, bethanechol treatment) [%]	phosphorylation of EGFR, BRAF, ERK1/2, PI3K and AKT kinases (western blot) (murine K8282 cells; 72 hours)	ratios of p-EGFR/EGFR, p-BRAF/BRAF, p-ERK/ERK, p-PI3K/PI3K and p-AKT/AKT (densitometry) (murine K8282 cells; single agent alone)	number of spheres [1, 4]	size of spheres [1, 4]	sphere formation and growth of Kras mutant spheres ([1]; oncogenic K-Ras allele activated by adeno-Cre virus)
CC(C[N+](C)(C)C)OC(N)=O (stereo not shown) [bethanechol, 2-[(aminocarbonyl)oxy]-N,N,N-trimethyl-1-propanaminium]	inhibited	inhibited	41	significantly longer; also recorded: extend; also recorded: significantly prolonged	inhibited; also recorded: suppressed	decreased	significantly decreased; also recorded: suppression	50					
CC[C@@H]1C(=O)OC[C@@H]1Cc1cncn1C [pilocarpine, (3S,4R)-3-ethyl-4-[(3-methylimidazol-4-yl)methyl]oxolan-2-one]									significantly less phosphorylated	significantly decreased	significantly fewer; also recorded: reduced	smaller	significant inhibitory effect; also recorded: decrease; also recorded: suppresses
